Laboratory results from paper PMC5607274, “An iterative compound screening contest method for identifying target protein inhibitors using the tyrosine-protein kinase Yes” (Scientific Reports, 2017).

Target: T1, human recombinant Yes [a.a. 2–543 (end)] (Homo sapiens, UniProt P07947)
T1 construct: human recombinant Yes [a.a; 2–543 (end)]; purchased BPS Bioscience 40488
Assay: ADP-Glo kinase assay, inhibition rates of Yes phosphorylation activity (first and second screening)
Type: biochemical
Details: first screening; mean of n = 4 wells; 10 μmol L−1 compound
Summary of the method: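 Hits from a first pass were rescreened after re-dissolution from fresh powder. The first pass reported the mean inhibition rate of quadruplicate wells per compound. Activity was that of recombinant human Yes [a.a. 2–543] kinase, read out with the ADP-Glo ADP-detection method.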

T1 sequence (P07947 2-543): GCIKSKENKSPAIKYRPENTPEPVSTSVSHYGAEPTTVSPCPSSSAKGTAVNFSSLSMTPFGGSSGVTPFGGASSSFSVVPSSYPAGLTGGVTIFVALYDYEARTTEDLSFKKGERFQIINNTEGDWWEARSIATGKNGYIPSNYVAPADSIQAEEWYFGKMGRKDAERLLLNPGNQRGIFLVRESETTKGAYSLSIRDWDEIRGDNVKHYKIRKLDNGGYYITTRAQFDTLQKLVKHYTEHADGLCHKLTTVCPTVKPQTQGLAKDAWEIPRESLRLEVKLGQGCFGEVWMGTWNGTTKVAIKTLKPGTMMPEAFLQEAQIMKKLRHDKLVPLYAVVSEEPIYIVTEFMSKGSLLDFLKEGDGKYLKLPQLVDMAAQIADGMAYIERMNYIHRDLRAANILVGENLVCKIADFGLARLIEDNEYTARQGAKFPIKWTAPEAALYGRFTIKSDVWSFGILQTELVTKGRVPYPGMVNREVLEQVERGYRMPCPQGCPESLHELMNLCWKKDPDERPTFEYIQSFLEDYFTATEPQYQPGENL

Row | SMILES | First screening IR (inhibition rate) [%]
1 | NCC1CCCS1(=O)=O (centres unmarked) [Compound Z1203586543] | 6
2 | Cc1c[nH]c(=O)n1-c1cccc(NC(=O)C2CC(=O)N(C)C2c2cccnc2)c1 (centres unmarked) [Compound Z1204166998] | -13
3 | CC1=C(C(=O)N(C)C)C(c2ccc(-c3c(F)cccc3F)o2)NC(=S)N1 (centres unmarked) [Compound Z1211655765] | 1
4 | COC1CCC(N(C)c2ncc(C(=O)N3CCOCC3)cc2Cl)CC1 (centres unmarked) [Compound Z1212734184] | -2
5 | C[S+]([O-])CCNC(=O)c1ccc(-c2cc(Cl)cc(Cl)c2)s1 (centres unmarked) [Compound Z1220303895] | -13
6 | COC(=O)Cn1ncc2c(NCCCc3cccc(F)c3)ncnc21 [Compound Z1220626900] | -8
7 | COc1ccccc1NC(=O)C1=C(C)Nc2nc(SCc3ccccc3)nn2C1c1ccncc1 (centres unmarked) [Compound Z1227522997] | -5
8 | CC1OC(C)(C)N(C(=O)OC(C)(C)C)C1CNC(=O)c1c(F)cccc1Cl (centres unmarked) [Compound Z1229892973] | -2
9 | CC(C)(C)OC(=O)N1CC(NC(=O)c2cc3c(F)cc(Br)cc3[nH]2)C1 [Compound Z1231909655] | -12
10 | CCN(CC)Cc1ccc(C(=O)N2CCC3(C2)NC(=O)NC3=O)cc1 (centres unmarked) [Compound Z1233805260] | 5
11 | CN1CCN(S(=O)(=O)CCS(C)(=O)=O)CC1 [Compound Z1238645651] | -2
12 | Cc1ccc(-n2cnc3c2CCNC3)cc1 [Compound Z1250487636] | -7
13 | CC1(C)CN=C(N2CCN(C(=O)c3ccc(C(N)=O)cc3)CC2)S1 [Compound Z1250701189] | 3
14 | CCC1CN(C(=O)OCc2ccccc2)C(CC)CN1C(=O)CCc1cnn(C)c1 (centres unmarked) [Compound Z1251624666] | -2
15 | Cc1cc(C(=O)Nc2nc3ccccc3n2C2CCCC2)nn1C [Compound Z1251687771] | 9
16 | COC(=O)c1ccc(F)c(S(=O)(=O)N(C)C2C3CCOC3C2(C)C)c1 (centres unmarked) [Compound Z1252759503] | 3
17 | CCN(CCNC(=O)CCN1CCN(c2ccccn2)CC1)c1ccccc1C [Compound Z1255568722] | 27
18 | CCc1cc(CNC(=O)NCc2ccc3cc(OC)ccc3c2)on1 [Compound Z1256754058] | -8
19 | CC(C)(C)Cc1cc(NC(=O)c2cnn(-c3ccccc3Cl)c2)n[nH]1 [Compound Z1262045135] | 70
20 | CC(C)CCc1nc(CN2C(=O)NC3(CCN(C(=O)OC(C)(C)C)CC3)C2=O)cs1 [Compound Z1262256786] | -2
21 | CCCCCNS(=O)(=O)CCS(C)(=O)=O [Compound Z1262455598] | -9
22 | CS1(=O)=NC=C(C(=O)O)C=C1 (centres unmarked) [Compound Z1262519784] | 52
23 | Cc1ccn2c(/C=C/C(=O)c3cccc(N4CCOC4=O)c3)cnc2c1 [Compound Z1263913876] | 44
24 | CN(C(=O)c1cccc(NC(=O)c2ccc(Br)o2)c1)c1ccc(C#N)cc1 [Compound Z1269414490] | -5

Row | SMILES | First screening IR (inhibition rate) [%]
25 | CC1CC2CCCCC2N1c1ncnc2c1nnn2-c1ccccc1 (centres unmarked) [Compound Z1270084447] | 45
26 | Fc1ccc(-c2cc(-c3ccc(Cl)cc3)c3ccccc3n2)cc1 [Compound Z1270166647] | 43
27 | Cc1cc(S(=O)(=O)Nc2cc(-c3ccncc3)nn2C)ccc1Br [Compound Z1270579889] | 54
28 | CC1CCCC(C)N(S(=O)(=O)CCCS(C)(=O)=O)C1 (centres unmarked) [Compound Z1271251540] | 8
29 | CC1(C)CCCN(S(=O)(=O)CCCS(C)(=O)=O)CC1 [Compound Z1271277951] | -3
30 | COCCCCCn1ncc2ccc([N+](=O)[O-])cc21 [Compound Z1271542350] | 7
31 | CS(=O)(=O)C1CSCCN1S(=O)(=O)c1ccc(Br)cc1Cl (centres unmarked) [Compound Z1274438175] | -18
32 | CC(C)(C)n1cc(C(=O)NCc2ccc(-c3cccnc3)cc2)cn1 [Compound Z1276379731] | 5
33 | Cc1cccc(-c2nc(NC(=O)C3Cc4cc(F)ccc4O3)n[nH]2)n1 (centres unmarked) [Compound Z1279679753] | -4
34 | O=C(c1cc(Cc2ccccc2)ccc1O)N1CCN(Cc2ccon2)CC1 [Compound Z1285074692] | 21
35 | O=C(NS(=O)(=O)Cc1ccc(Cl)nc1)C1CCc2cn[nH]c2C1 (centres unmarked) [Compound Z1291253354] | -13
36 | COC(=O)c1cc(S(=O)(=O)Oc2ccc3c(C(C)C)cc(=O)oc3c2)cn1C [Compound Z1309300961] | 1
37 | Fc1ccc(-c2n[nH]c(CNc3cncc(Cl)n3)n2)cc1 [Compound Z1309541011] | -11
38 | CN1CCC(=O)Nc2cc(C(=O)N(C)C3CCCN(c4ccccc4)C3=O)ccc21 (centres unmarked) [Compound Z1315092412] | 16
39 | CC(C)(C)c1nccc(Nc2cn[nH]c2)n1 [Compound Z1317605702] | 42
40 | Cc1ccc(C(=O)Nc2ccc(OCc3ccccn3)c(F)c2)cn1 [Compound Z1318975474] | -2
41 | Cc1nc(N(C)C(C)c2ccc([S+](C)[O-])cc2)c2cnn(C)c2n1 (centres unmarked) [Compound Z1324037636] | 9
42 | CC(C)c1nc2n(n1)CC(NC(=O)Nc1cc(-c3ccccc3)ns1)CC2 (centres unmarked) [Compound Z1327803154] | 17
43 | CS(=O)(=O)N(C(=O)c1ccc(OC(F)(F)F)cc1)C1CCC(O)CC1 (centres unmarked) [Compound Z1328888966] | 2
44 | CC(Oc1ccc(N(C)C(N)=O)cc1)c1nnc(-c2cccc(Cl)c2)o1 (centres unmarked) [Compound Z1329202056] | -16
45 | CCCCNS(=O)(=O)C1=CCS(=O)(=O)C1 [Compound Z1342205464] | 9
46 | O=S1(=O)CC=C(S(=O)(=O)N2CCCC2)C1 [Compound Z1342206502] | 6
47 | Cc1cc(C)n(-c2cncc(NC(C)c3nnc4ccccn34)n2)n1 (centres unmarked) [Compound Z1343207103] | 5
48 | c1nc(N2CCCC2c2ccsc2)c2[nH]cnc2n1 (centres unmarked) [Compound Z1343239610] | 12

Row | SMILES | First screening IR (inhibition rate) [%]
49 | Cc1ccccc1C1CCCN1c1ncnc2nc[nH]c12 (centres unmarked) [Compound Z1343261311] | 42
50 | Cc1c(C(=O)Nc2cnn(C)c2)c(=O)[nH]c2ccccc12 [Compound Z1343740230] | 23
51 | CC(C)S(=O)(=O)CCS(=O)(=O)Cc1ccc(Cl)cc1 [Compound Z1347350562] | -14
52 | CC(C)S(=O)(=O)CCS(=O)(=O)Cc1ccccc1 [Compound Z1347350572] | 2
53 | CC(C)S(=O)(=O)CCS(=O)(=O)C(C)c1ccc(F)cc1 (centres unmarked) [Compound Z1347351122] | 12
54 | CC(C)S(=O)(=O)CCS(=O)(=O)CC1CCCCC1 [Compound Z1347351162] | -3
55 | CC(C)S(=O)(=O)CCS(=O)(=O)c1cccc(Br)c1 [Compound Z1347351377] | -2
56 | O=C(OCc1ccc(-n2ccnc2)nc1)c1ccc([N+](=O)[O-])cc1 [Compound Z1352068858] | 7
57 | CC1(C)CN(c2nc(-c3ccncc3)nc3c2CCC3)CC[S+]1[O-] (centres unmarked) [Compound Z1396757600] | 8
58 | COC1(C)CC(N(C)C(=O)NC2CCCn3nc(C(C)C)nc32)C1(C)C (centres unmarked) [Compound Z1396774495] | -1
59 | CC1CN(c2nccnc2C#N)CCN1C(=O)c1cccc(OCc2ccc(F)cc2)c1 (centres unmarked) [Compound Z1401935735] | 35
60 | CCNC(=O)CN(CC)S(=O)(=O)c1cnn(-c2ccc(F)cc2)c1C [Compound Z1403244361] | 2
61 | CCC(C)CS(=O)(=O)N1CCS(=O)(=O)C(C)(C)C1 (centres unmarked) [Compound Z1403432995] | 11
62 | CN(C)c1nc2ccc(NC(=O)c3csc(-c4ccoc4)n3)cc2o1 [Compound Z1404550995] | 10
63 | Nc1ccnc(-c2cncs2)n1 [Compound Z1407063064] | -14
64 | COc1cccc(-c2cc(-c3ccccc3)c3cc(Br)ccc3n2)c1 [Compound Z1409331244] | -16
65 | CC(C)N(CC#N)S(=O)(=O)c1ccccc1S(C)(=O)=O [Compound Z1411146082] | -35
66 | Cc1cc(=O)[nH]c(C(C)Sc2ncn(-c3ccccc3)n2)n1 (centres unmarked) [Compound Z1415883225] | 34
67 | CCCN(Cc1cccnc1OC)C1CCN(C(=O)c2ccccc2)CC1 [Compound Z1415907924] | 6
68 | Cc1nc(-c2ccc(C(=O)OCCCn3cccn3)cc2)n[nH]1 [Compound Z1417129003] | 10
69 | CNc1snc(C)c1C(=O)N1CCC(Oc2ccc(Cl)c(Cl)c2)C1 (centres unmarked) [Compound Z1417711005] | -7
70 | CN(C)c1ccc(-c2cncc(C(=O)NCC3CC=CCC3)c2)cc1 (centres unmarked) [Compound Z1418841673] | 21
71 | CC(Sc1ncc(CO)n1C)c1cn(-c2ccccc2)nn1 (centres unmarked) [Compound Z1419493384] | -8
72 | COC(=O)Cn1ncc2c(N3CCCCC3CCC(C)C)ncnc21 (centres unmarked) [Compound Z1419966801] | 1

Same assay, conditions: second screening, dissolved from fresh powder; n = 4; 10 μmol L−1 compound

Row | SMILES | Second screening IR (inhibition rate) [%]
73 | CC(C)(C)Cc1cc(NC(=O)c2cnn(-c3ccccc3Cl)c2)n[nH]1 [Compound Z1262045135] | 21
74 | CC(C)(C)c1nccc(Nc2cn[nH]c2)n1 [Compound Z1317605702] | 7
